Tests used:
[1] = system: bacterial strain LF82 binding to the glycoprotein BSA-(Mannose)3 (FimH antagonists); assay: Bacterial Binding Assay (BBA); assay type: cell-based, Escherichia coli; conditions: read-out: Bacterial Binding Assay IC50 ± SEM
In short: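 Luciferase-expressing E. coli LF82, grown overnight at 37 °C without shaking, added as 2×10^8 bacteria/mL suspension with compound in BSA/D-PBS binding buffer. Wells were coated with 0.5–2 μg/mL BSA-(Man)3 and BSA-blocked, with 40–75 min binding at room temperature. After washing, adherent bacteria were read by luciferase luminescence and IC50 derived.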

[2] = system: AIEC LF82 strain on T84 intestinal epithelial cells; assay: Adhesion assay of AIEC LF82 strain on T84 intestinal epithelial cells (post-incubation test); assay type: cell-based, E. coli
Description: Residual adhesion is the ratio of level of colonization/decolonization of AIEC measured on cells, and is expressed in percentage. 100% corresponds to the control experiment (NT).
Adhesion Assays of AIEC LF82 Strain on T84 Intestinal Epithelial Cells
Compound 56 was evaluated for its ability to inhibit the adhesion of bacteria AIEC LF82 strain on T84 intestinal cells, in order to assess the therapeutic potential of the tested compounds in Crohn's Disease (CD) in particular. The following post-incubation test was used (also described in Brument et al. J. Med. Chem. 2013, 56, 5395-5406), wherein the tested compound is added after the bacteria are brought into contact with the cells. This test thus mimics a use of the compounds in curative treatment of pathologies associated with AIECs, in particular Crohn's disease.
E. coli strain LF82 isolated from an ileal biopsy of a CD patient was used as the AIEC reference strain. Bacteria were grown overnight in Luria-Bertani (LB) broth, and a bacterial suspension was prepared at a concentration of 6×10^6 bacteria/mL in DMEM/F12/SVF dec 10% medium for adhesion assays. The human intestinal cell line T84, purchased from American Type Culture Collection (ATCC, CCL-248), was maintained in an atmosphere containing 5% CO2 in the culture medium recommended by ATCC. […]

| Structure (SMILES) | IC50 [1] [nM] | decolonization of adherent bacteria ([2]; at 10 nM, compound added after infection of T84 cells with LF82, 3 h at 37° C.) | activity for the decolonization of the LF82 AIEC from T84 cells ([2]; from a concentration of 100 nM, FIG. 1) |
| --- | --- | --- | --- |
| Cc1cc(=O)[nH]cc1-c1cc(C#C[C@H]2O[C@H](CO)[C@@H](O)[C@H](O)[C@@H]2O)c2[nH]ncc2c1 [Compound 56, 4-methyl-5-[7-[2-[(2R,3S,4R,5S,6R)-3,4,5-trihydroxy-6-(hydroxymethyl)tetrahydropyran-2-yl]ethynyl]-1H-indazol-5-yl]-1H-pyridin-2-one] | 0.2 ± 0.02 | about 50% | potent activity |
| Cn1cnc2ccc(-c3cc(C#C[C@H]4O[C@H](CO)[C@@H](O)[C@H](O)[C@@H]4O)c4[nH]ncc4c3)cc21 [Compound 33, (2R,3S,4R,5S,6R)-2-(hydroxymethyl)-6-[2-[5-(3-methylbenzimidazol-5-yl)-1H-indazol-7-yl]ethynyl]tetrahydropyran-3,4,5-triol] | 0.4 ± 0.05 | – | – |
